The values that follow are results of earlier work, collected in patent US20060183719A1 (priority 2005, published 2006).

Like-named read-outs stand apart in the source and are kept apart here.

As for `CN(C)c1ccc(O)c2c1CC1CC3C(N(C)C)C(O)=C(C(N)=O)C(=O)C3(O)C(O)=C1C2=O` (centres unmarked) [minocycline], the absorption result (in vivo, po) is given as “about 90%”. Take `C[C@H]1c2cccc(O)c2C(=O)C2=C(O)[C@]3(O)C(=O)C(C(N)=O)=C(O)[C@@H](N(C)C)[C@@H]3[C@@H](O)[C@@H]21` [doxycycline]: for the setting “administered orally”, the absorption entry is “about 90%”.
